Assay results: patent publication USRE48267E1, “Variants of C-type natriuretic peptide” (priority 2009, dated 2020)

Assay: pharmacokinetics in rats (plasma CNP immunoreactivity by RIA)
Assay type: in vivo, rat
Conditions: male, rat, plasma, iv, i.v. 20 nmol/kg
Protocol: Recombinant wild-type CNP22, CNP37 and PEO24-GANRR-CNP22 […]) (SEQ ID NO: 36) were evaluated. […] Standard and QC samples were prepared. […] Plasma CNP immunoreactivity was employed for pharmacokinetics (PK) analysis. PK analysis was performed using WINNONLIN® Professional (Pharsight Corporation).

- AUC (read-out: area under the curve, AUC (converted)): 0.026 µM·h
- half-life (read-out: half-life, T1/2): 49.5 min
Compound: CC[C@H](C)[C@@H]1NC(=O)[C@H](CCCNC(=N)N)NC(=O)[C@H](CC(=O)O)NC(=O)[C@H](CC(C)C)NC(=O)[C@H](CCCCN)NC(=O)[C@H](CC(C)C)NC(=O)CNC(=O)[C@H](Cc2ccccc2)NC(=O)[C@@H](NC(=O)CNC(=O)[C@H](CCCCN)NC(=O)[C@H](CO)NC(=O)[C@H](CC(C)C)NC(=O)CNC(=O)[C@H](CCCCN)NC(=O)[C@H](CCCCN)NC(=O)[C@H](CC(N)=O)NC(=O)[C@H](C)NC(=O)CNC(=O)[C@H](CCCCN)NC(=O)[C@H](Cc2ccc(O)cc2)NC(=O)[C@H](CCCCN)NC(=O)[C@H](CCCNC(=N)N)NC(=O)[C@H](C)NC(=O)[C@H](CC(N)=O)NC(=O)[C@@H]2CCCN2C(=O)[C@H](Cc2c[nH]cn2)NC(=O)[C@H](CCC(=O)O)NC(=O)[C@@H](N)CCC(N)=O)CSSC[C@@H](C(=O)O)NC(=O)CNC(=O)[C@H](CC(C)C)NC(=O)CNC(=O)[C@H](CO)NC(=O)[C@H](CCSC)NC(=O)[C@H](CO)NC(=O)CNC1=O [Analog BL]
